Measurements from patent US4021434A, “Sodium β-[2,6-dimethyl-3,5-bis(ethoxycarbonyl)-4-(3-nitrophenyl)-1,4-dihyd ropyridine-1-yl]ethyl sulfate” (Yamanouchi Pharmaceutical Co., Ltd., priority 1972, dated 1977).

Columns and labels:
mice = test: in vivo; assay type: in vivo
cerebral circulation = test: Effect on cerebral circulation in dogs anesthetized by chloralose-urethane (Experiment 1, Table I); assay type: in vivo
[1] = tested on: hypertensive action of norepinephrine; test: Antagonism against hypertensive action of norepinephrine, intra-duodenal administration (Experiment 4, Table 5); assay type: in vivo, dogs
Procedure: Drugs were administered intra-duodenally.

[2] = Effects on MBP and partial oxygen pressure (PO2) in coronary venous blood, intra-duodenal administration (Experiment 4, Table 4)
Procedure: (§1) Antagonism against hypertensive action of norepinephrine and effects on MBP and partial oxygen pressure (referred to hereinafter as PO2) in coronary venous blood, in case of intra-duodenal administration:
(§2) By using dogs anesthetized by pentobarbital, blood pressure at the femoral artery was measured. […] Antagonism against hypertensive active in case of norepinephrine administration (3g/kg i.v.) was investigated also. Drugs were administered intra-duodenally.

[3] = tested on: partial oxygen pressure in coronary venous blood; test: as above
Procedure: as §1, §2

in vivo = assay type: in vivo; conditions: mouse, in vivo, mice
[4] = tested on: vertebral blood flow and coronary blood flow; test: Effects on mean blood pressure, vertebral blood flow and coronary blood flow, intravenous, dogs anesthetized with pentobarbital (Experiment 3, Table 3); assay type: in vivo
Procedure: Effects on mean blood pressure (hereinafter referred to as MBP), vertebral blood flow (hereinafter referred to as VBF) and coronary blood flow (hereinafter referred to as Cor.BF), when administered intravenously:
By using dogs anesthetized with pentobarbital, VBF and Cor. BF were measured with an electromagnetic flowmeter. Blood pressure at the femoral artery was measured.

physchem = conditions: water
[5] = 1 mg/kg i.d., 1/2 hour post-administration
[6] = 1 mg/kg i.d., 1 hour post-administration
[7] = 1 mg/kg i.d., 2 hour post-administration
[8] = 1 mg/kg i.d., 3 hour post-administration
[9] = 1 mg/kg i.d., 5 hour post-administration
[10] = 1 mg/kg i.d., 8 hour post-administration
[11] = 1 mg/kg i.d., Pre-administration (baseline)
[12] = 10 mg/kg i.d., 1/2 hour post-administration
[13] = 10 mg/kg i.d., 1 hour post-administration
[14] = 10 mg/kg i.d., 2 hour post-administration
[15] = 10 mg/kg i.d., 3 hour post-administration
[16] = 10 mg/kg i.d., 5 hour post-administration
[17] = 10 mg/kg i.d., 8 hour post-administration
[18] = 10 mg/kg i.d., Pre-administration (baseline)

## CCOCN1C(C)=C(C(=O)OCC)C(c2cccc([N+](=O)[O-])c2)C(C(=O)OCC)=C1C [A, diethyl 1-ethoxymethyl-2,6-dimethyl-4-(3-nitrophenyl)-1,4-dihydropyridine-3,5-dicarboxylate]
mice; i.p.
  MLD (Minimum lethal dose): > 3000 mg/kg
mice; p.o.
  MLD (Minimum lethal dose): > 5000 mg/kg
Cerebral circulation; 0.1 mg/Kg i.v.
  Carotid blood flow Duration: 120 min
  Carotid blood flow Increase: 80%
  Mean Blood Pressure Decrease: 9%
  Regional Cerebral blood flow Duration: 120 min
  Regional Cerebral blood flow Increase: 8.6 μV
  Vertebral Blood Flow Increase: 120%
  Vertebral blood flow Duration: 100 min

## CCOC(=O)C1=C(C)NC(C)=C(C(=O)OCC)C1c1cccc([N+](=O)[O-])c1 [B]
[1]; [5]
  Percent inhibition against increase of blood pressure caused by norepinephrin: 79%
[1]; [6]
  Percent inhibition against increase of blood pressure caused by norepinephrin: 78%
[1]; [7]
  Percent inhibition against increase of blood pressure caused by norepinephrin: 79%
[1]; [8]
  Percent inhibition against increase of blood pressure caused by norepinephrin: 77%
[1]; [9]
  Percent inhibition against increase of blood pressure caused by norepinephrin: 63%
[1]; [10]
  Percent inhibition against increase of blood pressure caused by norepinephrin: 48%
[2]; [11]
  MBP: 101
[2]; 1 mg/kg i.d., change, 1/2 hour post-administration
  MBP: -39
[2]; 1 mg/kg i.d., change, 1 hour post-administration
  MBP: -43
[2]; 1 mg/kg i.d., change, 2 hour post-administration
  MBP: -42
[2]; 1 mg/kg i.d., change, 3 hour post-administration
  MBP: -32
[2]; 1 mg/kg i.d., change, 5 hour post-administration
  MBP: -27
[2]; 1 mg/kg i.d., change, 8 hour post-administration
  MBP: -12
[3]; [5]
  PO2 in coronary venous blood: 34.6
[3]; [6]
  PO2 in coronary venous blood: 37.7
[3]; [7]
  PO2 in coronary venous blood: 39.3
[3]; [8]
  PO2 in coronary venous blood: 38.9
[3]; [9]
  PO2 in coronary venous blood: 32.7
[3]; [10]
  PO2 in coronary venous blood: 25.0
[3]; [11]
  PO2 in coronary venous blood: 17.4
Water-solubility
  water-solubility (in words): almost unsoluble in water
In vivo; ip
  LD50: 525 mg/kg
In vivo; po
  LD50: 5000 mg/kg
Cerebral circulation; 0.01 mg/Kg i.v.
  Carotid blood flow Duration: 30 min
  Carotid blood flow Increase: 83%
  Mean Blood Pressure Decrease: 29%
  Regional Cerebral blood flow Duration: 30 min
  Regional Cerebral blood flow Increase: 9.2 μV
  Vertebral Blood Flow Increase: 130%
  Vertebral blood flow Duration: 30 min
[4]; 0.001 mg/kg i.v.
  Coronary Blood Flow Duration: 5 min
  Coronary Blood Flow Increase: 58 Δ%
  Mean Blood Pressure Decrease: -15 ΔmmHg
  Vertebral Blood Flow Increase: 20 Δ%
[4]; 0.01 mg/kg i.v.
  Coronary Blood Flow Duration: 30 min
  Coronary Blood Flow Increase: 141 Δ%
  Mean Blood Pressure Decrease: -35 ΔmmHg
  Vertebral Blood Flow Increase: 144 Δ%

## COC(=O)C1=C(C)NC(C)=C(C(=O)OC)C1c1ccccc1[N+](=O)[O-] [C]
Cerebral circulation; 0.01 mg/Kg i.v.
  Carotid blood flow Duration: 30 min
  Carotid blood flow Increase: 90%
  Mean Blood Pressure Decrease: 28%
  Regional Cerebral blood flow Duration: 30 min
  Regional Cerebral blood flow Increase: 8.2 μV
  Vertebral Blood Flow Increase: 120%
  Vertebral blood flow Duration: 30 min

## CCOC(=O)C1=C(C)N(CCOS(=O)(=O)[O-])C(C)=C(C(=O)OCC)C1c1cccc([N+](=O)[O-])c1.[Na+] [D, sodium β-[2,6-dimethyl-3,5-bis(ethoxycarbonyl)-4-(3-nitrophenyl)-1,4-dihydropyridine-1-yl]-ethyl sulfate]
[1]; [12]
  Percent inhibition against increase of blood pressure caused by norepinephrin: 69%
[1]; [13]
  Percent inhibition against increase of blood pressure caused by norepinephrin: 84%
[1]; [14]
  Percent inhibition against increase of blood pressure caused by norepinephrin: 89%
[1]; [15]
  Percent inhibition against increase of blood pressure caused by norepinephrin: 89%
[1]; [16]
  Percent inhibition against increase of blood pressure caused by norepinephrin: 85%
[1]; [17]
  Percent inhibition against increase of blood pressure caused by norepinephrin: 79%
[2]; [18]
  MBP: 110
[2]; 10 mg/kg i.d., change, 1/2 hour post-administration
  MBP: -11
[2]; 10 mg/kg i.d., change, 1 hour post-administration
  MBP: -21
[2]; 10 mg/kg i.d., change, 2 hour post-administration
  MBP: -32
[2]; 10 mg/kg i.d., change, 3 hour post-administration
  MBP: -43
[2]; 10 mg/kg i.d., change, 5 hour post-administration
  MBP: -4.3
[2]; 10 mg/kg i.d., change, 8 hour post-administration
  MBP: -40
[3]; [12]
  PO2 in coronary venous blood: 34.7
[3]; [13]
  PO2 in coronary venous blood: 37.2
[3]; [14]
  PO2 in coronary venous blood: 39.7
[3]; [15]
  PO2 in coronary venous blood: 43.3
[3]; [16]
  PO2 in coronary venous blood: 43.2
[3]; [17]
  PO2 in coronary venous blood: 40.0
[3]; [18]
  PO2 in coronary venous blood: 17.8
[3]; compared with compounds B or C
  duration time: much longer than those of compounds B or C
[3]; peroral (intra-duodenal), compared with compounds B or C
  absorption in case of peroral administration: more easily absorbed than compounds B or C
Water-solubility
  water-solubility (in words): excellent water-solubility
[4]; 0.1 mg/kg i.v.
  Coronary Blood Flow Duration: 20 min
  Coronary Blood Flow Increase: 67 Δ%
  Mean Blood Pressure Decrease: -5 ΔmmHg
  Vertebral Blood Flow Increase: 21 Δ%
[4]; 0.3 mg/kg i.v.
  Coronary Blood Flow Duration: 60 min
  Coronary Blood Flow Increase: 72 Δ%
  Mean Blood Pressure Decrease: -12 ΔmmHg
  Vertebral Blood Flow Increase: 75 Δ%
[4]; 1 mg/kg i.v.
  Coronary Blood Flow Duration: ≥ 120 min
  Coronary Blood Flow Increase: 137 Δ%
  Mean Blood Pressure Decrease: -35 ΔmmHg
  Vertebral Blood Flow Increase: 169 Δ%
[4]; administered intravenously
  effects on cerebral and coronary blood flow and blood pressure (in words): excellent effects as increasing the cerebral blood flow and coronary blood flow and at the same time showed hypotensive activity
[4]; administered intravenously, compared with known compounds
  duration of activities (in words): prolonged for a long period of time when compared with known compounds
physchem
  solubility: ~400 mg/mL

## CCOC(=O)C1=C(C)NC(C)=C(C(=O)OCC)C1c1ccccc1C(F)(F)F [E, 3,5-Dicarboethoxy-1,4-dihydro-2,6-dimethyl-4-(2-trifluoromethylphenyl)pyridine]
[4]; 0.001 mg/kg i.v.
  Coronary Blood Flow Duration: 10 min
  Mean Blood Pressure Decrease: -16 ΔmmHg
  Vertebral Blood Flow Increase: 74 Δ%
[4]; 0.01 mg/kg i.v.
  Coronary Blood Flow Duration: 45 min
  Mean Blood Pressure Decrease: -44 ΔmmHg
  Vertebral Blood Flow Increase: 144 Δ%

## COc1ccc(Cc2nccc3cc(OC)c(OC)cc23)cc1OC [Papaverine]
Cerebral circulation; 1.0 mg/Kg i.v.
  Carotid blood flow Duration: 6 min
  Carotid blood flow Increase: 120%
  Mean Blood Pressure Decrease: 18%
  Regional Cerebral blood flow Duration: 7 min
  Regional Cerebral blood flow Increase: 8.2 μV
  Vertebral Blood Flow Increase: 120%
  Vertebral blood flow Duration: 6 min

## CCOC(=O)C1=C(C)N(CC(=O)O)C(C)=C(C(=O)OCC)C1c1cccc([N+](=O)[O-])c1 [sodium α-[3,5-bis(ethoxycarbonyl)-2,6-dimethyl-4-(3'-nitrophenyl)-1,4-dihydro-1-pyridinyl]acetate]
Water-solubility
  water-solubility (in words): easily soluble in water
